Experimental data: patent publication US20030149005A1, “24-sulfur-substituted analogs of 1alpha, 25-dihydroxy vitamin D3” (priority 2001, published 2003)
pIC50: −log10 of the molar value.

Experiments:
[1] = Calcium excretion (hypercalcemia assay) in rats; assay type: in vivo; details: for urinary calcium levels: concentration 20 fold greater than the concentration of calcitriol
Description: Compound I(a) was tested for its effect on calcium excretion and weight gain in rats using a protocol described in Posner et al. J. Med. Chem. 41, 3008-3014, 1998.

CYP27B1 = target: T1, CYP27B1 (UniProt O15528); experiment: Assay of CYP1-alpha hydroxylase (transfected COS-1 cells); assay type: cell-based; details: COS-1 cells transfected with CYP-1alpha hydroxylase cDNA, [3H-26,27]-25(OH)D3 substrate
T1 sequence (O15528 1-508): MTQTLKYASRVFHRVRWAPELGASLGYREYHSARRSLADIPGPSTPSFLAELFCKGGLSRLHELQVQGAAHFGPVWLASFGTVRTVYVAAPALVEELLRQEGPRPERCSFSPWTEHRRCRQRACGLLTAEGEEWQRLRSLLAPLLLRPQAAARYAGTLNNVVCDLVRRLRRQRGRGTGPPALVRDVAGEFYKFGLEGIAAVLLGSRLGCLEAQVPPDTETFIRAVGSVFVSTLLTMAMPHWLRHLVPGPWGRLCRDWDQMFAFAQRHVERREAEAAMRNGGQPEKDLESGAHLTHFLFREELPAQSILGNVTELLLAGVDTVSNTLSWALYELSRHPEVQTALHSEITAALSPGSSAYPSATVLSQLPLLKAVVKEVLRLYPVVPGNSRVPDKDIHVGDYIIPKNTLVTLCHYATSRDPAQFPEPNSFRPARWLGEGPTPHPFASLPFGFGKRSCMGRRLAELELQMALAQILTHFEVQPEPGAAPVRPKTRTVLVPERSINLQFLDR
Description: Assay of CYP1-Alpha Hydroxylase (Using Transfected COS-1 Cells)
1. COS-1 cells (50-80% confluent)
2. FuGene 6 Transfection Reagent
3. PcDNA vector containing CYP-1alpha hydroxylase cDNA (1 μg/μl)
5. DMEM Medium (serum-free)
(ii) Transfection Cocktail Preparation (The Amount Depends on How Many Wells Transfected)
1. To a sterile tube, add serum-free medium (100 μl per well), Then add FuGene 6 Reagent (3 μl per well). Tap gently to mix. Pay attention to the order.
2. Add DNA solution (1 μg per well) to the prediluted FuGene 6 Reagent from step 2
3. Gently tap the tube to mix the contents. […] Incubate for 15 min at room temperature (no more than 45 min).
1. Trypsinize Cos-1 cells, centrifuge cell suspension, suspend cells pellet in DMEM medium+10% FCS.
2. Dilute the cells suspension to 750,000 cell/ml (75 cell/square),
1. Add 1.7 ml DMEM medium+10 O %FCS to each well of 6 well plate.
2. Transfer the correct volume of the cell suspension (200 μl/well) to the transfection cocktail. Mix them gently
3. Add 0.3 ml of the mixture to each well. Make sure that the same amount cells are added to each well. Swirl the wells to ensure even dispersal.
4. Incubate the cells for 24 hours at 37° C., 5% CO2 until enzyme activity assay.
(B) Enzyme Activity Assay
1. Wash cells once with PBS. Be careful, don't disturb the attached cells
2. Add 0.55 ml medium (DMEM+1%BSA) each well.
3. Add 0.025 ml medium containing test compounds
4. Incubate the cells for 10 minutes
6. Incubate the cells for 2 hour.
7. Add 1.5 ml Methanol to stop reaction
8. Add internal standard.
9. Transfer the medium to labeled tube.
10. Add 0.75 ml dichloromethane, vortex and keep in room temperature for 15 minutes.
11. Add 0.75 ml dichloromethane and 0.75 ml saturated KCl
12. Vortex and centrifuge
13. Remove upper phase and dry the lower phase in Speed-Vac
14. Add 110 μl mobile phase, vortex and centrifuge for 5 min.
15. Transfer 105 μl to the insert in HPLC vial.
16. HPLC analysis conditions:
Solvent: Hexane/isopropanol/methanol (91/7/2)
Detector: UV detector and radioactive detector.

CYP27A1 = target: T2, CYP27A1 (Homo sapiens, UniProt Q02318); experiment: CYP27A1 enzyme assay; assay type: biochemical
T2 construct: fused on or other part: Possibly fused to adrenodoxin reductase and adrenodoxin, if the fusion enzyme of Dilworth et al. 1996 was used
T2 sequence (Q02318 34-531): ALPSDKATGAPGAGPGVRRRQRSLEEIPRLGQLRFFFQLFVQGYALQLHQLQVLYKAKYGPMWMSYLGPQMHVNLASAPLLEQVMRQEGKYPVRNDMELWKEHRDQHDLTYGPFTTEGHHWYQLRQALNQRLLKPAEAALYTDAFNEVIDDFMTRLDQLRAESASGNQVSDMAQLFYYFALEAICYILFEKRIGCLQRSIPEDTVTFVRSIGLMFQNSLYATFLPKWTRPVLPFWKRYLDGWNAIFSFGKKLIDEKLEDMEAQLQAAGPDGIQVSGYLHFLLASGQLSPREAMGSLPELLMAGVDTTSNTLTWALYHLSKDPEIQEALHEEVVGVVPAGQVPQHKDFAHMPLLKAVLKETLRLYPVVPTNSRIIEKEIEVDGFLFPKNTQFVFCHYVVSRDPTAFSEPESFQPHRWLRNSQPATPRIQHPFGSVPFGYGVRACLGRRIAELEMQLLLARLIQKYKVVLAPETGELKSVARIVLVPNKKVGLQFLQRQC
Source text: Dilworth F J, Black S M, Guo Y D, Miller W L, Jones G. Construction of a P450c27 fusion enzyme: a useful tool for analysis of vitamin D3 25-hydroxylase (1996) Biochem J 320:267-271
Sawada N, Sakaki T, Ohta M, Inouye K. Metabolism of vitamin D (3) by human CYP27A1 (2000) Biochem Biophys Res Commun 273(3):977-84

CYP24 = target: T3, CYP24 (Homo sapiens, UniProt Q07973); experiment: CYP24 enzyme assay (induced HPK1A-ras cells); assay type: cell-based; details: [3H]-1,25(OH)2D3 substrate
T3 construct: When the HPK1A-ras cells are 80-90% confluent, add 1 μL 10^−5 M 1,25(OH)2D3 to 1 mL medium; endogenous in cells; host or cells: HPK1A-ras cells induced with 10^-8 M 1,25(OH)2D3
T3 sequence (Q07973 36-514): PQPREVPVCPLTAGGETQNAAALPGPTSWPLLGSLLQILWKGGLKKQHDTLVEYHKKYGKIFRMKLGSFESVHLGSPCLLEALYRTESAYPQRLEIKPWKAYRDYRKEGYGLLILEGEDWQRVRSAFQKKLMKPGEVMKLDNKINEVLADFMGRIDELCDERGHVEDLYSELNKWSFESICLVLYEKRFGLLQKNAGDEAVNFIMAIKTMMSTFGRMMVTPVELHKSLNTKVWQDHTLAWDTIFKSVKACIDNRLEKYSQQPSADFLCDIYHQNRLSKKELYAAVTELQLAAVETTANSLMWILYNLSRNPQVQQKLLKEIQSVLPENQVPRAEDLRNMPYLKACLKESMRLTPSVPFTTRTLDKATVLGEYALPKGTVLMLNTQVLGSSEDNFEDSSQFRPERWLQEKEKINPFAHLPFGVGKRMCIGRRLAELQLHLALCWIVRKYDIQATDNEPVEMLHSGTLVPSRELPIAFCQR
Description: CYP24 Enzyme Assay (Induced KPK1A-ras Cells)
(i) Material and Reagents:
Saturated KCl: KCl 30 g, H2O400 ml
1. Induction of HPK1A-ras cells (The day before assay)
When the HPK1A-ras cells are 80-90% confluent, add 1 μL 10^−5 M 1,25(OH)2D3 to 1 mL medium in the plate (final concentration is 10^−8 M).
2. Preparation of cell suspension
After 18 to 20 hours induction, remove the medium and wash the cell twice with PBS. Then tripsinize the cells from plate, centrifuge (2,000 rpm, 5 min) and suspend cells pellet in DMEM medium+1%BSA.
Count the cells and adjust cells density to 250,000/150 μL, add 150 μL cell suspension to each well in 48-well plate. (including 3 well as no cell control, and 3 well cells without drug or inhibitor as control).
3. Add 25 μL ketoconazole (final concentration 10^−5 M, 10^−6 M, 10^−7 M, 10^−1 M) or drugs into each designated well. Keep the plate in 37° C. for 10 min.
4. Preparation of substrate
Take certain amount of DMEM+1%BSA medium (25*Well number+200) μL to a tube, add certain amount of 3H-1,25(OH)2D3 (well number+2) μL and certain amount of 100 mM DPPD (well number/5) μL and mix them by vortex.
Add 25 mL substrate to each well, incubate the plate at 37° C. for 3 hour.
Add 25 mL substrate to counting plate (2 well) as a total count.
6. Lipid extraction and counting
Add 500 μL methanol to each well to stop the reaction, transfer them to tube
Add 250 μL dichloromethane and vortex.
Add 250 μL dichloromethane and 250 μL saturated KCl, and vortex.
Centrifuge at 4000 rpm for 5 min.
Transfer 100 μL of aqueous phase (upper phase) to counting plastic counting plate. Add 600 μL of scintillation fluid to each well. Count the plate in scintillation counter.
7. Calculation enzyme activity
CPM of cell control after subtraction of CPM of NCC is as 100% enzyme activity.
Enzyme activity=(CPM in test compounds well —CPM in NCC well)/(CPM in Cell control−CPM in NCC well)*100%

Row | SMILES | pIC50 (CYP27B1) | pIC50 (CYP27A1) | pIC50 (CYP24) | calcemic activity ([1]; calcium excretion protocol) | urinary calcium levels [1] | urinary calcium levels ([1]; listed as Ia)
1 | C=C1/C(=C\C=C2/CCC[C@]3(C)[C@@H]([C@H](C)CCS(=O)(=O)c4ccccc4)CC[C@@H]23)C[C@@H](O)C[C@@H]1O [I(a)] | < 5.00 | < 5.00 | – | – | did not show an increase in urinary calcium levels | did not increase the levels of calcium in the urine
2 | C=C1/C(=C\C=C2/CCC[C@]3(C)[C@@H]([C@H](C)CCS(=O)(=O)c4ccc(Cl)c(Cl)c4)CC[C@@H]23)C[C@@H](O)C[C@@H]1O [I(i)] | < 6.00 | – | 7.04 | – | – | –
3 | C[C@H](CCS(=O)(=O)c1ccccc1)[C@H]1CC[C@H]2/C(=C/C=C3C[C@@H](O)C[C@H](O)C3)CCC[C@]12C [I(u)] | – | – | 6.80 | strongly non-calcemic | – | –
4 | C=C1/C(=C\C=C2/CCC[C@]3(C)[C@@H]([C@H](C)CCS(=O)(=O)C(C)(C)C)CC[C@@H]23)C[C@@H](O)C[C@@H]1O [I(v)] | < 5.00 | – | 6.66 | – | – | –

More lines, main results first:

Row | pIC50 (CYP27B1) | pIC50 (CYP27A1) | pIC50 (CYP24) | calcemic activity ([1]; calcium excretion protocol) | SMILES | urinary calcium levels [1] | urinary calcium levels ([1]; listed as Ia)
5 | < 6.00 | – | 7.03 | – | C=C1/C(=C\C=C2/CCC[C@]3(C)[C@@H]([C@H](C)CCS(=O)(=O)c4ccc(Cl)cc4)CC[C@@H]23)C[C@@H](O)C[C@@H]1O [I(e)] | – | –
6 | < 6.00 | – | 6.67 | – | C=C1/C(=C\C=C2/CCC[C@]3(C)[C@@H]([C@H](C)CCS(=O)(=O)c4ccc(C)cc4)CC[C@@H]23)C[C@@H](O)C[C@@H]1O [I(g)] | – | –
7 | 5.07 | – | 6.33 | – | C=C1/C(=C\C=C2/CCC[C@]3(C)C([C@H](C)CCSC(C)(C)C)=CC[C@@H]23)C[C@@H](O)C[C@@H]1O [I(gg)] | – | –
8 | 5.04 | – | 7.05 | – | C=C1/C(=C\C=C2/CCC[C@]3(C)[C@@H]([C@H](C)CCS(=O)(=O)C(C)C)CC[C@@H]23)C[C@@H](O)C[C@@H]1O [I(w)] | – | –
